Measurements from patent US5126258A (priority 1988, dated 1992).
“Also recorded” adds a separate entry of the source. Where two headings read alike, the source gives them in different places. Each block holds one molecule with its values, some of them ahead of it. *1 amine or outer side, *2 acyl side, *3 side chain or, on linkers, in order; H or OH if unused. Where a SMILES comes first, the peptide text is derived from it. The star is where a group is joined. Glutaryl = O=C(CCCC(=O)[*:2])[*:1]; pNA = O=[N+]([O-])c1ccc(N*)cc1; Cbz = O=C(OCc1ccccc1)*

Tests used:
[1] = system: monoclonal receptor NPN 43C9; assay: Amide hydrolysis by monoclonal receptor NPN 43C9, kinetics and inhibition; format: biochemical, mouse; conditions: for Km: printed figure = km × 10^6; for Vmax: figure = Vmax × 10^9; for kcat: printed figure = kcat × 10^4; for nature of inhibition / Ki: substrate Compound 28
Procedure: FIG. 6 is a graph showing a Lineweaver-Burk plot for amide hydrolysis of reactant ligand Compound 28 by monoclonal receptor NPN 43C9 present at 10 uM. Rates were determined as discussed hereinafter. The ordinate is in units of 1/initial velocity (1/v) in units of minutes/moles (M^-1 min) from zero through 10^7. The abscissa is in units of the reciprocal of the concentration of Compound 28 [1/(28)] in micromoles (uM^-1).
FIG. 7 is a graph showing plots of steady-state velocity (V×10^-9M^-1 min) as a function of total NPN 43C9 monoclonal receptor concentration (At ×10^-6 M) in the absence (I=O) and presence (I=44,=88 and =131) of different concentrations of reversible tight-binding inhibitor (Compound 24i). The indicia adjacent to each curve (I=O, I=44, I=88, and I=131) represent the total micromolar (uM) concentrations of that inhibitor. Each data set was obtained at a constant reactant ligand concentration (1600 uM). […] The data obtained were thereafter fit to an equation shown and discussed hereinafter.
FIG. 8 is a graph showing three further Lineweaver-Burk plots for the hydrolysis of Compound 28 by receptor NPN 43C9 present at 8 uM. Initial velocities were calculated as discussed hereinafter, whereas the ordinate and abscissa are as discussed for FIG. 6, albeit the values of the ordinate are from zero to 3×10^7 M^-1 min. In those plots, the uppermost plot ( ) was prepared from data obtained in the presence of 2000 uM Compound 29 as inhibitor, the middle plot ( ) was obtained in the presence of 1000 uM Compound 29 as inhibitor, and the lowest plot ( ) was obtained in the absence of inhibitor.
It was therefore stored at 4 degrees C in buffer containing 150 mM sodium chloride that was removed immediately prior to use by dialysis against 50 mM CHES, 80 uM NaCl at a pH value of 9.0, and at a temperature of 22 degrees C. This receptor was utilized at concentrations of 10 and 8 uM (as an average value determined from a BCA assay and O. D. 280 nm, using a molecular weight of 160,000 daltons for IgG).
Kinetic parameters for hydrolysis of reactant ligand Compound 28 were determined by measuring the initial linear absorbance change at 404 nm, release of p-nitroaniline. Monoclonal receptor concentrations utilized were 10 and 8 uM, as noted previously. Reactions were initiated by admixture of varying aliquots of a 50 or 100 mM stock solution of Compound 28 in DMF, to provide reactant ligand substrate concentrations of 100-1600 uM. Further studies were carried out using a mixed organic solvent containing dimethyl sulfoxide (DMSO) and acetonitrile (CH3 CN) to dissolve the ligand. In those studies, a final concentration of 5 percent (v/v) of organic solvent was utilized with DMSO comprising 0.2-2.4 volume percent of the final concentration and CH3 CN comprising the remainder of the organic solvent.
Transacylation reactions utilizing an amide reactant ligand as substrate have been studied with Compound 28 as the reactant ligand. In these studies, forty-four hybridomas were prepared that secreted forty-four monoclonal receptors that bound to a conjugate of the immunizing hapten and BSA as carrier protein. Of those forty-four receptors, two appeared to catalyze the hydrolysis reaction of Compound 28. One of those two receptors, NPN 43C9, was selected for further study, as is discussed below.
The initial rates of hydrolysis measured as a function of reactant ligand (Compound 28) concentration followed Michaelis-Menten kinetics.
*Parameters in the upper horizontal row were obtained in the presence of
DMF as a Compound 28solubilizing solvent, whereas parameters in the lower
horizontal row were detained in the presence of DMSO/CH3 CN as
Compound 28solubilizing solvent.
To establish the specificity of monoclonal receptor NPN 43C9, the rates of hydrolysis of potential reactant ligands modified in their acyl or aniline portions were studied. […]

[2] = system: monoclonal receptor P3 6D4; assay: Stoichiometric transacylation reaction of monoclonal receptor P3 6D4 with coumarin ester Compound 5 (fluorescence) and its inhibition/inactivation; format: biochemical, mouse
Procedure: A Perkin-Elmer LS-5 fluorescence spectrometer was operated at a fixed wavelength, using 355 nanometers (nm) for excitation and measuring the emission at 455 nm. A stock solution of the coumarin ester 5 was prepared in dioxane and was diluted to the desired concentrations in Tris-HCl (50 mM, pH 7) or sodium phosphate (50 mM, pH 4-9).
Reactions were run at 23 degrees C and were initiated by the addition of an aliquot of antibody solution (1 mg/ml) to substrate solutions to provide a final protein concentration of 100 nM. Final fluorescence values were determined by hydrolysis of the substrate with pig liver esterase. The observed reaction rate was corrected for spontaneous hydrolysis. Reaction kinetics were studied by measuring initial rates under pseudo-first order conditions. Active protein concentration was extrapolated from fluorescence values at the end of the reaction. The kinetic parameters were obtained by fitting the data to a hyperbolic curve and from double reciprocal plots. Inhibition constants were determined from the Lineweaver-Burk plot data with at least five inhibitor concentrations. All the data were studied by a least squares analysis.
Antibody preparations were inactivated without introducing fluorescent products by the addition of the activated ester (Compound 8) in dioxane to a solution of the IgG (5 mg/ml) in Tris-HCl (50 mM, pH 6.5) at a ratio of 5 moles of the ester (Compound 8) per mole IgG.
Protein modification was performed in an analogous manner, by the addition of a dioxane solution of the reagent at a known concentration to the antibody. The solution was incubated for 30 minutes before filtration through Sephadex G-25. The activity remaining was compared to control samples. Aliquots of IgG (5 mg/ml) inactivated with the ester (Compound 8) were diluted with four volumes of phosphate buffer (50 mM, pH 4-9, at intervals of 1 pH unit). Any pH change was recorded, and the sample was stored at 4 degrees C for 24 hours.
Initially, the ester was used at a concentration that was about four-fold greater than that of the protein, and the mixture was incubated at pH 7.2 for 10 minutes. Any change in fluorescence above background was noted.
The termination of the reaction is noted by the return of the rate of fluorescence increase to the background level.

[3] = DMF as Compound 28-solubilizing solvent
[4] = DMSO/CH3CN as Compound 28-solubilizing solvent

Molecule: N=C(N)NCCCC(NC(=O)c1ccccc1)C(=O)Nc1ccc([N+](=O)[O-])cc1 (racemic) [reference compound]
substrate acceptance by NPN 43C9 [1]: not reactant ligand substrates

Molecule: CC(C)C[C@H](NC(=O)[C@H](CCC(=O)O)NC(=O)CCCC(=O)O)C(=O)Nc1ccc([N+](=O)[O-])cc1 [glutaryl-glutamyl-L-leucine p-nitroanilide, reference compound] (Glutaryl-Glu-Leu-pNA)
substrate acceptance by NPN 43C9 [1]: not reactant ligand substrates

Molecule: N[C@@H](CSCc1ccccc1)C(=O)Nc1ccc([N+](=O)[O-])cc1 [S-benzyl-L-cysteine p-nitroanilide, reference compound]
substrate acceptance by NPN 43C9 [1]: not reactant ligand substrates

Molecule: CC(C)C[C@H](N)C(=O)Nc1ccc([N+](=O)[O-])cc1 [L-leucine p-nitroanilide, reference compound]
substrate acceptance by NPN 43C9 [1]: not reactant ligand substrates

Molecule: CC(C)C[C@H](NC(=O)CNC(=O)CNC(=O)OCc1ccccc1)C(=O)Nc1ccc([N+](=O)[O-])cc1 [N-CBZ-glycyl-glycyl-L-leucine p-nitroanilide, reference compound] (Cbz-Gly-Gly-Leu-pNA)
substrate acceptance by NPN 43C9 [1]: not reactant ligand substrates

Molecule: O=C(Cc1ccc(NC(=O)C(F)(F)F)cc1)ON1C(=O)CCC1=O [Compound 6]
inactivation of receptor [2]: specifically combine with the antibodies to produce an inactive product

Molecule: N=C(N)NCCC[C@H](NC(=O)OCc1ccccc1)C(=O)Nc1ccc([N+](=O)[O-])cc1 [N-alpha-CBZ-L-arginine p-nitroanilide, reference compound]
substrate acceptance by NPN 43C9 [1]: not reactant ligand substrates

Molecule: CC(C)[C@H](N)C(=O)Nc1ccc([N+](=O)[O-])cc1 [L-valine p-nitroanilide, reference compound]
substrate acceptance by NPN 43C9 [1]: not reactant ligand substrates

Molecule: zinc [reference compound]
effect of additive on antibody-enhanced esterolysis of Compound 5 ([2]; up to 100 micromolar added zinc and picolinic acid, EDTA concentration not given): No effect

Molecule: CC(=O)N[C@@H](CC(N)=O)C(=O)Nc1ccc([N+](=O)[O-])cc1 [acetyl-L-asparagine p-nitroanilide, reference compound]
substrate acceptance by NPN 43C9 [1]: not reactant ligand substrates

Molecule: NCCCC[C@H](N)C(=O)Nc1ccc([N+](=O)[O-])cc1 [L-lysine p-nitroanilide, reference compound]
substrate acceptance by NPN 43C9 [1]: not reactant ligand substrates

Molecule: O=C(Nc1ccc([N+](=O)[O-])cc1)[C@@H]1CCCN1 [L-proline p-nitroanilide, reference compound]
substrate acceptance by NPN 43C9 [1]: not reactant ligand substrates

Molecule: O=C(N[C@@H](Cc1ccc(O)cc1)C(=O)Nc1ccc([N+](=O)[O-])cc1)c1ccccc1 [N-benzoyl-L-tryrosine p-nitroanilide, reference compound]
substrate acceptance by NPN 43C9 [1]: not reactant ligand substrates

Molecule: O=C(O)CN(CCN(CC(=O)O)CC(=O)O)CC(=O)O [EDTA, reference compound]
effect of additive on antibody-enhanced esterolysis of Compound 5 [2]: failure of added EDTA to affect the reaction

Molecule: O=C(O)Cc1ccc(NC(=O)C(F)(F)F)cc1 [carboxylate product of ester hydrolysis]
Ki ([2]; summary, kinetic parameters at low pH values, read-out: Ki (inhibition of antibody esterolysis)): 7 µM

Continued, in another order:

rate acceleration / rate enhancement relative to uncatalyzed reaction [1]: 10^5
substrate acceptance by NPN 43C9 [1]: substrate
kcat/kuncat [1, 3]: 1.5 × 10^5
Km ([1]; DMF as Compound 28-solubilizing solvent, pH 9.0): 370 µM
Vmax [1, 3]: 8.3 nM/s
kcat [1, 3]: 0.00083 s⁻¹
kcat/kuncat [1, 4]: 2.5 × 10^5
Vmax [1, 4]: 7 nM/s
kcat [1, 4]: 0.00133 s⁻¹
Km [1, 4]: 562 µM
available transition state binding energy ΔΔG ([1]; difference between binding of inhibitor (Ki) and Compound 28 (Km)): -2.2 kcal/mol
Molecule: O=C(O)CCCC(=O)Nc1ccc(CC(=O)Nc2ccc([N+](=O)[O-])cc2)cc1 [Compound 28]

nature of inhibition [1]: reversible
Molecule: CC(=O)Nc1ccc(CP(=O)(O)Nc2ccc([N+](=O)[O-])cc2)cc1 [inhibitor]

stoichiometric antibody reaction (release of alcohol) [2]: not detected
Molecule: CC(=O)Nc1ccc(CC(=O)Oc2ccc3ccc(=O)oc3c2)cc1 [reference compound]

substrate acceptance by NPN 43C9 [1]: not reactant ligand substrates
Molecule: O=C(O)CCCC(=O)N[C@@H](Cc1ccccc1)C(=O)Nc1ccc([N+](=O)[O-])cc1 [N-glutaryl-L-phenylalanine p-nitroanilide, reference compound]

substrate acceptance by NPN 43C9 [1]: non-substrates
Molecule: O=C(O)CCCC(=O)Nc1ccc(CC(=O)Nc2ccccc2[N+](=O)[O-])cc1

substrate acceptance by NPN 43C9 [1]: lack of receptor-assisted hydrolysis
substrate acceptance by NPN 43C9 ([1]; listed as Compound 28 with m-nitroaniline for p-nitroaniline): non-substrates
nature of inhibition [1]: inhibitor
Molecule: O=C(O)CCCC(=O)Nc1ccc(CC(=O)Nc2cccc([N+](=O)[O-])c2)cc1 [Compound 29]

substrate acceptance by NPN 43C9 [1]: catalytically hydrolyzed
Molecule: O=C(O)CCCC(=O)Nc1ccc(CC(=O)Oc2ccc([N+](=O)[O-])cc2)cc1

calculated maximum number of enzyme binding sites ([1]; detected with inhibitor Compound 24i): 5.1±0.9
Ki ([1]; infinite reactant ligand concentration, inhibitor binding to receptor in a complex, read-out: inhibition constant kii): 2.5 µM
Ki ([1]; low substrate concentration, inhibitor binding to free receptor, read-out: inhibition constant kis): 10 µM
Molecule: CC(=O)Nc1ccc(CP(=O)(O)Nc2ccc([N+](=O)[O-])cc2)cc1 [Compound 24i]
nature of inhibition [1]: Tight binding inhibition; also recorded: mixed inhibitor
